In patent US20220324865A1 (Bayer Aktiengesellschaft, priority 2018, published 2022):

Target: T1, human EP3 receptor (Homo sapiens, UniProt P43115)
T1 construct: expressed in transfected cells; host or cells: CHO K1 (Chinese Hamster Ovary), stably co-transfected with Galpha16 and mitochondrial clytin
T1 sequence (P43115 1-390): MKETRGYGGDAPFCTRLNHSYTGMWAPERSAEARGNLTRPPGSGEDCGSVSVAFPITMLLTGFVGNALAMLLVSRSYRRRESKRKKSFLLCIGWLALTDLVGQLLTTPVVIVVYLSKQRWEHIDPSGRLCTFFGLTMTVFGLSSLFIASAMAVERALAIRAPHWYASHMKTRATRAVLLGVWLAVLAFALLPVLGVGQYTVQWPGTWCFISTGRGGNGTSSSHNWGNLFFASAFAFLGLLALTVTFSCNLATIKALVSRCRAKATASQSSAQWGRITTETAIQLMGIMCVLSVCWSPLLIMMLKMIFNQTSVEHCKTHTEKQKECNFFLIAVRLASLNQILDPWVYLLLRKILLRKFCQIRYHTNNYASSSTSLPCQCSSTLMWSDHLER
Assay: Cellular in vitro assay for determining EP3 receptor activity (human EP3 cell line, sulprostone-stimulated calcium luminescence)
Format: cell-based
Settings: CHO cells expressing human EP3 and mitochondrial Clytin; antagonist mode, sulprostone at EC50; read-out: EP3 CHO mtCLY ANTAG IC50
Procedure, shortened: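 Antagonist activity was measured as inhibition of the luminescent calcium signal elicited by EC50 sulprostone, following 10 min compound pretreatment. The cell line was recombinant CHO K1 co-expressing human EP3, Gα16 and the photoprotein Clytin, reconstituted with coelenterazine.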

| Compound | IC50 |
| --- | --- |
| Cc1ccc(-c2[nH]c(=O)c3c(C(F)(F)F)c(C(=O)N[C@H](CCO)c4ccc(F)cc4)nn3c2C)cc1C [Example 1-122, 6-(3,4-Dimethylphenyl)-N-[(1R)-1-(4-fluorophenyl)-3-hydroxpropyl]-7-methyl-4-oxo-3-(trifluoromethyl)-4,5-dihydropyrazolo[1,5-a]pyrazine-2-carboxamide] | 4.13 nM |
| Cc1c(C(=O)NC(C)c2ccc3c(c2)OCCO3)nn2c(C)c(-c3ccc4ccccc4c3)[nH]c(=O)c12 (centres unmarked) [Example 3-31, N-[1-(2,3-Dihydro-1,4-benzodioxin-6-yl)ethyl]-3,7-dimethyl-6-(2-naphthyl)-4-oxo-5H-pyrazolo[1,5-a]pyrazine-2-carboxamide] | 4.45 nM |
| CCn1nccc1C(C)NC(=O)c1nn2c(C)c(-c3ccc4ccccc4c3)[nH]c(=O)c2c1C (centres unmarked) [Example 3-12, N-[1-(1-Ethyl-1H-pyrazol-5-yl)ethyl]-3,7-dimethyl-6-(2-naphthyl)-4-oxo-4,5-dihydropyrazolo[1,5-a]pyrazine-2-carboxamide] | 1.75 nM |
| COc1ccc(CNC(=O)c2cc3c(=O)[nH]c(-c4ccc5c(c4)N(C)CCO5)cn3n2)cc1OC [Example 1-16, N-(3,4-Dimethoxybenzyl)-6-(4-methyl-3,4-dihydro-2H-1,4-benzoxazin-6-yl)-4-oxo-4,5-dihydropyrazolo[1,5-a]pyrazine-2-carboxamide] | 2 nM |
| Cc1cc(-c2cn3nc(C(=O)NC(c4ccc(F)cc4)C4(O)CC4)c(C(F)(F)F)c3c(=O)[nH]2)ccc1Cl (single isomer, unassigned) [6-211] | 1.18 nM |
| COc1ccc2c(c1)C(NC(=O)c1nn3cc(-c4cnc5cccc(C)c5c4)[nH]c(=O)c3c1C(C)C)CC(C)(C)O2 (centres unmarked) [Example 4-74, 3-Isopropyl-N-(6-methoxy-2,2-dimethyl-3,4-dihydro-2H-chromen-4-yl)-6-(5-methylquinolin-3-yl)-4-oxo-4,5-dihydropyrazolo[1,5-a]pyrazine-2-carboxamide] | 6.05 nM |
| Cc1ccc(-c2cn3nc(C(=O)N[C@@H](C)C4CC4)c(C4CC(F)(F)C4)c3c(=O)[nH]2)cc1Cl [6-560] | 1.6 nM |
| COc1ccc(C(C)NC(=O)c2nn3c(C)c(-c4ccc5ccccc5c4)[nH]c(=O)c3c2C)cn1 (centres unmarked) [Example 3-38, N-[1-(6-Methoxy-3-pyridyl)ethyl]-3,7-dimethyl-6-(2-naphthyl)-4-oxo-5H-pyrazolo[1,5-a]pyrazine-2-carboxamide] | 1.85 nM |
| Cc1cc(-c2cn3nc(C(=O)NC(C)C4CCC4)c(C(F)(F)F)c3c(=O)[nH]2)ccc1Cl (single isomer, unassigned) [6-223] | 1.25 nM |
| C[C@@H](NC(=O)c1nn2cc(-c3ccc4ccccc4c3)[nH]c(=O)c2c1C(F)(F)F)c1ccc(F)cc1 [Example 1-53, N-[(1R)-1-(4-Fluorophenyl)ethyl]-6-(naphthalen-2-yl)-4-oxo-3-(trifluoromethyl)-4,5-dihydropyrazolo[1,5-a]pyrazine-2-carboxamide] | 0.82 nM |
| COC[C@@H](NC(=O)c1cc2c(=O)[nH]c(-c3ccc(C)c(C)c3)cn2n1)c1ccccc1 [Example 1-13, 6-(3,4-Dimethylphenyl)-N-[(1S)-2-methoxy-1-phenylethyl]-4-oxo-4,5-dihydropyrazolo[1,5-a]-pyrazine-2-carboxamide] | 1.15 nM |
| Cc1ccc(-c2cn3nc(C(=O)NC(C)(C)C4CC4)c(C4CC4)c3c(=O)[nH]2)cc1Cl [6-280] | 1.5 nM |
| CC[C@@H](C)NC(=O)c1nn2cc(-c3ccc(C(F)(F)F)c(C)c3)[nH]c(=O)c2c1C1CC1 [Example 1-138, N-[(2R)-Butan-2-yl]-3-cyclopropyl-6-[3-methyl-4-(trifluoromethyl)phenyl]-4-oxo-4,5-dihydropyrazolo[1,5-a]pyrazine-2-carboxamide] | 6.85 nM |
| Cc1c(C(=O)NC(C)c2ccc(S(N)(=O)=O)cc2)nn2c(C)c(-c3ccc4ccccc4c3)[nH]c(=O)c12 (centres unmarked) [Example 3-18, 3,7-Dimethyl-6-(2-naphthyl)-4-oxo-N-[1-(4-sulfamoylphenyl)ethyl]-5H-pyrazolo[1,5-a]pyrazine-2-carboxamide] | 3.75 nM |
| C[C@@H](CO)NC(=O)c1nn2cc(-c3ccc4ccccc4c3)[nH]c(=O)c2c1C(F)(F)F [6-526] | 9.43 nM |
| COc1ccc2c(c1)C(NC(=O)c1cc3c(=O)[nH]c(-c4ccc5ccccc5c4)cn3n1)CC(C)(C)O2 (centres unmarked) [Example 2-16, N-[6-Methoxy-2,2-dimethyl-3,4-dihydro-2H-chromen-4-yl]-6-(2-naphthyl)-4-oxo-4,5-dihydropyrazolo[1,5-a]pyrazine-2-carboxamide] | 6.2 nM |
| Cc1c(C(=O)NC(C)(C)c2cc(Cl)cc(Cl)c2)nn2c(C)c(-c3ccc4ccccc4c3)[nH]c(=O)c12 [Example 3-30, N-[2-(3,5-Dichlorophenyl)propan-2-yl]-3,7-dimethyl-6-(naphthalen-2-yl)-4-oxo-4,5-dihydropyrazolo[1,5-a]pyrazine-2-carboxamide] | 9.4 nM |
| CC(C)(O)[C@@H](NC(=O)c1cc2c(=O)[nH]c(-c3ccc4ccccc4c3)cn2n1)c1ccc(F)cc1 [Example 1-29, N-[(1S)-1-(4-Fluorophenyl)-2-hydroxy-2-methylpropyl]-6-(naphthalen-2-yl)-4-oxo-4,5-dihydropyrazolo[1,5-a]pyrazine-2-carboxamide] | 1.55 nM |
| CN1CC(NC(=O)c2nn3cc(-c4ccc5c(c4)OCCO5)[nH]c(=O)c3c2C(F)(F)F)(c2ccc(F)cc2)C1 [6-535] | 4.2 nM |

| Compound | IC50 |
| --- | --- |
| O=C(N[C@@H](c1ccc(F)cc1)C(F)(F)CO)c1nn2cc(-c3ccc(Cl)c(F)c3)[nH]c(=O)c2c1C1CC1 [6-95] | 1.73 nM |
| Cc1ccc(-c2cn3nc(C(=O)N[C@H](CCO)c4ccc(F)cc4)c(C#N)c3c(=O)[nH]2)cc1C [Example 1-58, 3-Cyano-6-(3,4-dimethylphenyl)-N-[(1R)-1-(4-fluorophenyl)-3-hydroxpropyl]-4-oxo-4,5-dihydropyrazolo[1,5-a]pyrazine-2-carboxamide] | 1.5 nM |
| Cc1ccc([C@@H](C)NC(=O)c2nn3c(C)c(-c4ccc5ccccc5c4)[nH]c(=O)c3c2C)cc1 [Example 3-19, 3,7-Dimethyl-N-[(7R)-1-(4-methylphenyl)ethyl]-6-(naphthalen-2-yl)-4-oxo-4,5-dihydropyrazolo[1,5-a]pyrazine-2-carboxamide] | 1.55 nM |
| CC(C)(O)[C@@H](NC(=O)c1nn2cc(-c3ccc4ccccc4c3)[nH]c(=O)c2c1C(F)(F)F)c1ccccc1 [Example 1-18, N-[(1S)-2-Hydroxy-2-methyl-1-phenylpropyl]-6-(naphthalen-2-yl)-4-oxo-3-(trifluoromethyl)-4,5-dihydropyrazolo[1,5-a]pyrazine-2-carboxamide] | 1.04 nM |
| CC(C)(O)[C@@H](NC(=O)c1nn2cc(-c3ccc(C(F)(F)F)c(Cl)c3)[nH]c(=O)c2c1C1CC1)c1ccc(F)cc1 [6-598] | 2.35 nM |
| Cc1ccc(-c2cn3nc(C(=O)N[C@@H](c4ccccc4)C(C)(C)O)c(C4CC4)c3c(=O)[nH]2)cc1F [6-385] | 1.3 nM |
| Cc1c(C(=O)N[C@@H](c2ccc(F)cc2)C(C)(C)O)nn2c(C)c(-c3ccc4ccccc4c3)[nH]c(=O)c12 [6-604] | 1.85 nM |
| Cc1ccc(-c2cn3nc(C(=O)N[C@@H](C)C(C)(C)C)c(C4CC4)c3c(=O)[nH]2)cc1Cl [6-253] | 4.75 nM |
| CC(NC(=O)c1cc2c(=O)[nH]c(-c3ccc4cccnc4c3)cn2n1)c1ccc(F)c(F)c1 (centres unmarked) [6-28] | 3.9 nM |
| O=C(NC1CCN(C2CC2)C1)c1nn2cc(-c3ccc4ccccc4c3)[nH]c(=O)c2c1C(F)(F)F (racemic) [6-499] | 13 nM |
| Cc1cc(-c2cn3nc(C(=O)N[C@H](C)C4CC4)c(C(F)(F)F)c3c(=O)[nH]2)ccc1Cl [6-218] | 1.95 nM |
| C[C@@H](NC(=O)c1nn2cc(-c3ccc4ccccc4c3)[nH]c(=O)c2c1C#N)c1ccc(F)cc1 [6-68] | 2.35 nM |
| CN1CC(NC(=O)c2nn3cc(-c4ccc5c(c4)OCCO5)[nH]c(=O)c3c2C2CC2)(c2ccc(F)cc2)C1 [6-467] | 2.35 nM |
| C[C@@H](NC(=O)c1nn2cc(-c3cc(F)c(Cl)c(F)c3)[nH]c(=O)c2c1C1CC1)C1CC1 [6-473] | 3.3 nM |
| CCn1ccc(C(C)NC(=O)c2cc3c(=O)[nH]c(-c4ccc5ccccc5c4)cn3n2)n1 (centres unmarked) [Example 2-54, N-[1-(1-Ethyl-1H-pyrazol-3-yl)ethyl]-6-(2-naphthyl)-4-oxo-4,5-dihydropyrazolo[1,5-a]pyrazine-2-carboxamide] | 7.05 nM |
| CC(C)c1c(C(=O)N[C@@H](c2ccc(F)cc2)C(F)(F)CO)nn2cc(-c3ccc(Cl)c(F)c3)[nH]c(=O)c12 [6-536] | 3.8 nM |
| COc1ccc(C2(NC(=O)c3nn4cc(-c5ccc(Cl)c(C)c5)[nH]c(=O)c4c3C(F)(F)F)CN(C)C2)cc1 [6-213] | 3.15 nM |
| O=C(N[C@H]1CCc2ccccc21)c1cc2c(=O)[nH]c(-c3ccc4ccccc4c3)cn2n1 [Example 2-42, N-[(7S)-2,3-Dihydro-1H-inden-1-yl]-6-(2-naphthyl)-4-oxo-4,5-dihydropyrazolo[1,5-a]pyrazine-2-carboxamide] | 7.27 nM |
| CC(C)c1c(C(=O)N[C@@H](C)c2ccc(F)cc2)nn2cc(-c3ccc4ccccc4c3)[nH]c(=O)c12 [Example 1-9, N-[(1S)-1-(4-Fluorophenyl)ethyl]-6-(naphthalen-2-yl)-4-oxo-3-(propan-2-yl)-4,5-dihydropyrazolo-[1,5-a]pyrazine-2-carboxamide] | 2.37 nM |
